Where two headings read alike, the source gives them in different places.
Tests used:
Format in all cases: biochemical
human KMO [1] = molecular target: T1, human KMO (Homo sapiens, UniProt O15229); assay: Rapidfire mass spectrometry IC50 assay, isolated human KMO
T1 construct: full-length human KMO was cloned as an N-terminal GST fusion; GST (N); made in house; host or cells: Sf9 insect cells, used as a membrane fraction
Description: For the expression and isolation of human KMO membranes, full-length human KMO was cloned as an N-terminal GST fusion, expressed in Sf9 cells and isolated as a membrane fraction as described in Lowe et al.[12]
(§1) Inhibitor IC50 values against isolated human KMO were determined using a Rapidfire mass spectrometry assay as described in Lowe et al.[12] utilizing the Sf9 cell expressed human KMO described above. The inhibitor IC50 values against Pf-KMO were determined using an analogous Rapidfire mass spectrometry assay, utilizing the purified protein described above.

human KMO [2] = molecular target: T1, human KMO; assay: Association kinetics (onset of inhibition timecourses); design: steady-state rate Vs, onset of inhibition timecourse: unit not given here; details: for kobs, onset of inhibition: 200 μM NADPH, 10 μM L-Kyn; for kobs, onset of inhibition at sub-saturating NADPH: 10 nM GSK775(B2), regeneration system
Description: For the association kinetics assays, measurements were performed in a buffer of 50 mM Hepes pH 7.5, 2 mM DTT, 1 mM EDTA, 0.1 mM Chaps. Reactions were performed at ambient temperature, by addition of human KMO enzyme to a mixture of L-Kyn and NADPH containing the test inhibitor. […] Aliquots of the mixtures were quenched into 0.5% TFA in water. L-Kyn and 3-HK levels in the quenched samples were measured using the Rapidfire mass spectrometry method described in Lowe et al.[12] Calibration curves for L-Kyn and 3-HK were used to correct for the lower detection response for 3-HK. Per cent turnover and resulting concentration of 3-HK were calculated for each time point in Excel. kobs values for onset of inhibition were obtained by fitting individual timecourses to equation 1 where t=time, vs=steady-state rate, vi=initial rate and c=background[43]. vi was fixed at the uninhibited rate obtained from the slope of the timecourse in the absence of inhibitor.

Pf KMO [3] = molecular target: T2, Pf KMO (Pseudomonas fluorescens, UniProt Q84HF5, C252S/C461S); assay: Rapidfire mass spectrometry IC50 assay, Pf-KMO; details: from inhibition curves of Fig. 3b; [Pf-KMO]=1 nM, [L-Kyn]=10 μM, [NADPH]=200 μM
T2 construct: Success was made possible by the use of a full-length P. fluorescens orthologue; made in house; host or cells: Escherichia coli BL21 (DE3)
Description: as §1

human KMO [4] = molecular target: T1, human KMO; assay: NADPH KM determination with regeneration system, human KMO; details: 10 M Kynurenine (so in the source)
Description: (§2) The KM of kynurenine for human KMO and for Pf KMO were measured as described in Lowe et al.[12]. The KM of NADPH for human KMO was measured using a regeneration system as described in Lowe et al.[12], with a kynurenine concentration of 10 μM.

human KMO [5] = molecular target: T1, human KMO; assay: Dissociation kinetics (recovery of activity timecourses) and full kinetic analysis; design: steady-state rate Vs after equilibration of inhibitor binding, dissociation timecourse: unit not given here
Description: The dissociation kinetics measurements were performed in a buffer of 50 mM Hepes pH 7.5, 2 mM DTT, 1 mM EDTA, 0.1 mM Chaps. […] Aliquots of the reaction mixtures were quenched into 0.5% TFA in water. 3-HK levels in the quenched samples were measured using the Rapidfire mass spectrometry assay described in Lowe et al.[12] A calibration curve for 3-HK was used to convert the data to concentration of 3-HK at each time point. kobs values for recovery of activity were obtained by fitting individual timecourses to equation 1 with vi (initial rate) set to zero.
In this analysis, inhibitor kon was fixed at the value obtained in the association kinetic studies, and kcat and inhibitor koff were the two variable parameters.

Pf KMO [6] = molecular target: T2, Pf KMO; assay: L-Kyn KM determination, Rapidfire mass spectrometry, Pf-KMO
Description: as §2

Pf KMO [7] = molecular target: T2, Pf KMO; assay: Hydrogen peroxide formation, HRP/Amplex Red assay, Pf-KMO
Description: (§3) Measurements were performed in a buffer of 50 mM Hepes pH 7.5, 0.1 mM Chaps. A two-fold dilution series of test inhibitor and control compounds was prepared from DMSO solutions using the Hewlett-Packard D300 digital dispenser in a 384-well plate and normalized to a final DMSO concentration of 1% in the assay. 10 μl of 80 μg ml^−1 human KMO or 40 nM Pf-KMO were added. After 15 min incubation, 10 μl of a substrate/detection mix (2 U ml^−1 HRP, 20 μM Amplex Red, 40 μM NADPH) were added and the plate was read kinetically on a Tecan M1000 fluorescent plate reader with excitation wavelength 530 nm and emission wavelength 580 nm. A calibration curve comprising a two-fold dilution series of resorufin from 20 μM top concentration was included on the plate, and used to convert assay data to concentration of resorufin formed. Initial rate (μM min^−1) was extracted by linear fitting of the early region of each timecourse. Dose responses were fitted to a four parameter logistic expression where appropriate.

human KMO [8] = molecular target: T1, human KMO; assay: Hydrogen peroxide formation, HRP/Amplex Red assay, human KMO
Description: as §3

[9] = from inhibition curves of Fig. 3b, read-out: IC50 Human KMO

T1 sequence (O15229 whole entry, the tested form may be a part): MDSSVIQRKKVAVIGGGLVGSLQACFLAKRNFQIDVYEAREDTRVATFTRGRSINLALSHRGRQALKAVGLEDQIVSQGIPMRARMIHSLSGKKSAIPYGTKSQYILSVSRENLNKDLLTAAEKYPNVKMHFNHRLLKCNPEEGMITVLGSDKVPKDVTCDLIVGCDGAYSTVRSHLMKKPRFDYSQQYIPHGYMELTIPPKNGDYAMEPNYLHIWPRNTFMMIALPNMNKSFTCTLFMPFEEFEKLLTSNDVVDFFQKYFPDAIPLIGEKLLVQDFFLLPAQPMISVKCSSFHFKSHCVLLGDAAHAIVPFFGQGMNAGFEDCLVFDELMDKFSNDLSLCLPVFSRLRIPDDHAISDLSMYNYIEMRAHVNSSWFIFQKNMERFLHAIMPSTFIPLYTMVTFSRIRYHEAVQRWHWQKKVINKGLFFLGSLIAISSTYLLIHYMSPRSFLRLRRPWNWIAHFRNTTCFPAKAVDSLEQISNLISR
T2 sequence (Q84HF5 whole entry C252S/C461S): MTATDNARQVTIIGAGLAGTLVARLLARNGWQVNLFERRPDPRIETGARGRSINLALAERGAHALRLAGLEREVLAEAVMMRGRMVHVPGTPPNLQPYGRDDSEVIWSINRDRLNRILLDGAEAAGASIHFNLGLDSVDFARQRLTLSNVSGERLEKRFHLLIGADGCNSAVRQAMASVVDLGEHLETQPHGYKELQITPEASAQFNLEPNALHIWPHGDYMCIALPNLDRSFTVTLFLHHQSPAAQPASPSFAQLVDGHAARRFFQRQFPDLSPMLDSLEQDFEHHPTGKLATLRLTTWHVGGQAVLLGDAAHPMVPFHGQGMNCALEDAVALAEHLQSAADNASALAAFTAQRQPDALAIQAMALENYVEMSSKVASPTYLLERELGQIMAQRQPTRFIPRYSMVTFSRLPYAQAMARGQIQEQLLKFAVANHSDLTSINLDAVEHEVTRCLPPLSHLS

Cc1ccc([C@@H](C)Oc2cc3onc(CCC(=O)O)c3cc2Cl)nn1 [GSK366]
IC50 (human KMO [1]; [9]): 2.3 nM
mean slope of inhibition curve (human KMO [1]; human enzyme): 1.9
IC50 (human KMO [1]; human enzyme, mean of n determinations given in text, read-out: IC50 (mean potency, in vitro activity)): 2 nM
kobs, onset of inhibition (human KMO [2]; 5 nM inhibitor): 0.031 min⁻¹
IC50 (Pf KMO [3]): 0.7 nM

NC(=O)C1=CN([C@@H]2O[C@H](COP(=O)(O)OP(=O)(O)OC[C@H]3O[C@@H](n4cnc5c(N)ncnc54)[C@H](OP(=O)(O)O)[C@@H]3O)[C@@H](O)[C@H]2O)C=CC1 [NADPH]
Km (human KMO [4]): 1 µM

C[C@@H](Oc1cc2oc(=O)n(CCC(=O)O)c2cc1Cl)c1ccccn1 [GSK775]
kobs, onset of inhibition at sub-saturating NADPH (human KMO [2]; 1 uM NADPH): 0.035 min⁻¹
kobs, onset of inhibition at sub-saturating NADPH (human KMO [2]; 0.3 M NADPH (so in the source)): 0.013 min⁻¹
kobs, onset of inhibition at sub-saturating NADPH (human KMO [2]; 5 M NADPH (so in the source)): 0.069 min⁻¹
kobs, onset of inhibition (human KMO [2]; 10 nM inhibitor): 0.062 min⁻¹
onset kobs, times slower than for GSK428(A2) (human KMO [2]; same concentration conditions): at least 10 times
dissociation half life of KMO-inhibitor complex (human KMO [5]; human KMO): ~2 h

Nc1ccccc1C(=O)CC(N)C(=O)O [L-Kyn, L-kynurenine]
kcat (Pf KMO [6]; 200 μM NADPH): 2.3 s⁻¹
Km (Pf KMO [6]; read-out: L-Kyn KM, 200 μM NADPH): 7 µM

O=C(O)CCn1c(=O)oc2cc(OCc3ccccn3)c(Cl)cc21 [GSK891]
IC50 (human KMO [1]; [9]): 3.6 nM
IC50 (Pf KMO [3]): 4.3 nM

Cc1cc2oc(=O)n(CCC(=O)O)c2cc1Cl [GSK428]
IC50 (human KMO [1]; [9]): 10 nM
Effect of [L-Kyn] on IC50 (mode of inhibition) (human KMO [1]; human KMO): linear relationship
Generation of hydrogen peroxide (Pf KMO [7]): stimulate peroxide (H2O2) production
steady-state rate Vs, onset of inhibition timecourse (human KMO [2]; 10 nM GSK428(A2), last 5 minutes of timecourse, uninhibited Vi = 0.022): 0.004
steady-state rate Vs after equilibration of inhibitor binding, dissociation timecourse (human KMO [5]; last 5 minutes of timecourse in presence of GSK428(A2)): 0.147
IC50 (Pf KMO [3]): 60 nM
Generation of hydrogen peroxide (human KMO [8]): stimulate peroxide (H2O2) production

C[C@@H](Oc1cc2onc(CCC(=O)O)c2cc1Cl)c1ccccn1 [GSK065]
mean slope of inhibition curve (human KMO [1]; human enzyme): 1.9
